US20210220320A1, “ANALGESIC AGENT AND SEDATIVE AGENT” (THE UNIVERSITY OF TOKYO, priority 2018, published 2021)

Legend:
[1] = tested on: sciatic nerve ligation (CCI) mouse; test: Sciatic nerve ligation (CCI) model, plantar test of pain threshold for heat; assay type: in vivo; conditions: 40 mg/kg intraperitoneally, plantar test 30 min after administration; p<0.01 (FIG. 2)
Description: Since central sensitization was known to be involved in the second phase pain response in the formalin test, DSF was expected to also exert its effects on neuropathic pain. […] Thus, the sciatic nerve ligation (CCI) model, which is commonly used as a neuropathic pain mouse model, was used to evaluate the efficacy of DSF. In the sciatic nerve ligation (CCI) mouse group, a femoral region of each mouse was cut open and the muscle layer was removed to expose the sciatic nerve, and the sciatic nerve was ligated with 6-0 silk sutures at three positions spaced 1 mm apart, and the incision was then closed. In contrast, each mouse in the sham operation (Sham) group was subjected to the same operation till the muscle layer was removed, and the incision was then closed without ligating the exposed sciatic nerve. On one week postsurgery or later, the planter test was performed to evaluate the pain threshold for heat, which was a stimulus not associated with stimulant administration, in those mice. DSF was administered intraperitoneally to mice in the CCI DSF group at a dose of 40 mg/kg. The solvent control (a solution of 10% DMSO and 2% Tween-80) was administered instead of DSF to mice in the CCI control group. The plantar test was performed 30 minutes after administration.

[2] = tested on: mice subjected to the formalin test; test: Formalin test (inflammatory pain model), pain behavior in mice; assay type: in vivo, mouse
Description: The formalin test, which is an inflammatory pain model and is commonly used as a neuropathic pain model in a broad sense, was used to evaluate the pain-inhibiting effect of disulfiram (DSF).
In the formalin test, each mouse was placed in a transparent container for 30 minutes for acclimation to the analysis environment. Thereafter, a test drug or a solvent control (a solution of 10% DMSO and 2% Tween-80) was administered intraperitoneally to each mouse, and 30 minutes later, 20 μL of 1% formalin was injected subcutaneously from the palmar surface of the right hind paw to observe pain behavior in each mouse. The duration (sec.) of paw lifting and paw licking was used as a measured value of intensity of pain.
The formalin test is one of the commonly used models that are used as pain models to evaluate analgesic effects. A biphasic pain-like behavior is observed in the formalin test; the first response appears within 5 minutes and disappears till 10 minutes after the administration of formalin, and the second response is a response that reappears within 10 to 15 minutes after the administration of formalin (FIG. 1A).
DSF is metabolized in the body to generate diethyldithiocarbamate (DDC). The analgesic effects of metal complexes of DDC, which are considered to generate DDC in the body as well as DSF, was evaluated by the formalin test. The formalin test was performed in the same manner as in the above-described section 1. except that a copper complex of DDC (Cu(DDC)2) and an iron(III) complex of DDC (Fe(DDC)3) were used as test drugs. Either of the complexes was administered to mice at a dose of 40 mg/kg.

CCN(CC)C(=S)SSC(=S)N(CC)CC [DSF, tetraethylthiuram disulfide]
reduction in pain threshold associated with sciatic nerve ligation (CCI) [1]: prevented to a significant degree | analgesic effect (suppression of the second response) at 10 mg/kg ([2]; 10 mg/kg intraperitoneally, versus solvent control (FIG. 1C)): significant analgesic effects | suppression of the second response (pain score) in the formalin test ([2]; 40 mg/kg intraperitoneally, 30 min before 1% formalin, p<0.001 (FIG. 1B)): strongly suppressed | dose dependency of suppression of the second response relative to solvent control (100%) ([2]; DSF dose groups, intraperitoneal (FIG. 1C)): analgesic effects in a dose-dependent manner | analgesic effect compared with existing analgesics (pregabalin, loxoprofen, aspirin), suppression of the second response ([2]; all drugs at a fixed dose of 40 mg/kg (FIG. 1D)): stronger analgesic effects than all of the tested existing analgesics | sedative effect (behavior of treated mice) ([2]; mice in the formalin test after intraperitoneal administration): behaved more quietly
